Data taken from US20100094053A1, “USE OF PERSONAL CARE COMPOSITION” (CONOPCO, INC., D/B/A UNILEVER, priority 2008, published 2010).

Experiments:
[1] = target: T1, human recombinant CB2 receptor (Homo sapiens, UniProt P34972); test: CB2 receptor inhibition binding assay ([3H]-CP-55,940 displacement); conditions: 0.084 nM [3H]-CP-55,940, 90 minutes at 30° C
T1 construct: expressed in transfected cells; host or cells: HEK-293
Method: (§1) Ki values were calculated by applying the Cheng-Prusoff equation to the IC50 values (obtained by GraphPad) for the displacement of the bound radioligand by increasing concentrations of the test compound.

[2] = test system: histamine induced scalp itch; test: Clinical assessment of histamine induced scalp itch (histamine iontophoresis, half head study); type: in vivo, human; conditions: 1.5% v/v CMEA in ethanol, 30 μl patch on scalp for 24 h, then histamine iontophoresis
Method: Cocomonoethanolamide (CMEA) efficacy against itch was assessed using histamine iontophoresis. CMEA (1.5% v/v) was made up in 100% ethanol. The same concentration of ethanol was used as the vehicular control. A total of 31 subjects completed the randomised, double blind, half head clinical study. Volunteers were initially familiarised with the iontophoresis equipment and test protocol prior to study commencement. Following this phase, product application was commenced. Two sites were selected on each side of the head approximately halfway between the top of the ear and the apex of the head. An area of 2 cm^2 was carefully trimmed close to the scalp. Both the CMEA test solution and the ethanol control (30 μl each) were applied to a filter paper and placed in a 12 mm Finn chamber, which was attached the scalp with adhesive tape. Volunteers kept the patch in place for a period of 24 h. The chambers were then removed from the scalp and each application site received a histamine challenge via iontophoresis. Subjects scored perceived itch throughout the procedure by sliding an indicator up or down a Visual Analogue Score (VAS; calibrated in gradient fashion from 0 (none) to 100% (extremely intense)) to indicate itch intensity in real time. Data are expressed as the mean area under the curve+/−S.E. (standard error of the mean).

[3] = target: T2, human recombinant CB1 receptor (Homo sapiens, UniProt P21554); test: CB1 receptor inhibition binding assay ([3H]-CP-55,940 displacement)
T2 construct: expressed in transfected cells; host or cells: HEK-293
T2 sequence (P21554 whole entry): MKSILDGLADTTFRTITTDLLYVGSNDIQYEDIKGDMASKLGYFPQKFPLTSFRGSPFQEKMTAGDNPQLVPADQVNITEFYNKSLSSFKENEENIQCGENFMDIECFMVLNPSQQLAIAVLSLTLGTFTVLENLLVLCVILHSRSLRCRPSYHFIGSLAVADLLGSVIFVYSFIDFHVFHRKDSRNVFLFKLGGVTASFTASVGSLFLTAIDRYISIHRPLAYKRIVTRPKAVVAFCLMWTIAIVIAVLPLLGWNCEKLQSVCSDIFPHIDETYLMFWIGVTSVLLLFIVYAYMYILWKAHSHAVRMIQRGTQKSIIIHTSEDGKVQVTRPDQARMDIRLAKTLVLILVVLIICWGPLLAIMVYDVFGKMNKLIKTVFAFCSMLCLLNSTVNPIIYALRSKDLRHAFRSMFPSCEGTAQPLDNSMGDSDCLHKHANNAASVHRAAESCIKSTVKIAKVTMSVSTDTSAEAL
Method: as §1

T1 sequence (P34972 whole entry): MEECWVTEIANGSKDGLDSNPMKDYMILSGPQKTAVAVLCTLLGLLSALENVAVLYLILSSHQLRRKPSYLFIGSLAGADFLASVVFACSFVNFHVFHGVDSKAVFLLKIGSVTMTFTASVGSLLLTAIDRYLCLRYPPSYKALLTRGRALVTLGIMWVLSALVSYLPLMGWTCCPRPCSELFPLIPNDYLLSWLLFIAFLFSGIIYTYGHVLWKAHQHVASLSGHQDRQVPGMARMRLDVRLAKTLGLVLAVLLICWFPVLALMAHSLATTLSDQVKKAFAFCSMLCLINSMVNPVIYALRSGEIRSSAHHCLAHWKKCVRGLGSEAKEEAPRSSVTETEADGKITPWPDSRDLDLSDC

Cocomonoethanolamide [CMEA]
IC50 for displacement of [3H]-CP-55,940 at CB2 receptor ([1]; HEK-293 cells transfected with human recombinant CB2 receptor): 8.19 µg/mL | Ki at CB2 receptor ([1]; calculated by Cheng-Prusoff equation from IC50): 6.44 µg/mL | Visual Analogue Score (area under the curve; mean +/− S.E.M.) ([2]; 31 subjects): 74942 (9625) | reduction of perceived scalp itch ([2]; versus ethanol control, P<0.02): 16.6% | IC50 for displacement of [3H]-CP-55,940 at CB1 receptor ([3]; HEK-293 cells transfected with human recombinant CB1 receptor, 0.14 nM [3H]-CP-55,940, 90 minutes at 30° C): 5.08 µg/mL | Ki at CB1 receptor ([3]; calculated by Cheng-Prusoff equation from IC50, 0.14 nM [3H]-CP-55,940, 90 minutes at 30° C): 2.85 µg/mL | binding affinity, CB1R compared with CB2R ([3]; comparison of CB1 and CB2 binding data): higher for the CB1R than for CB2R
